Legend:
[1] = target: T1, Nicotinamide N-methyltransferase (Homo sapiens, UniProt P40261); experiment: biochemical
T1 sequence (P40261 whole entry): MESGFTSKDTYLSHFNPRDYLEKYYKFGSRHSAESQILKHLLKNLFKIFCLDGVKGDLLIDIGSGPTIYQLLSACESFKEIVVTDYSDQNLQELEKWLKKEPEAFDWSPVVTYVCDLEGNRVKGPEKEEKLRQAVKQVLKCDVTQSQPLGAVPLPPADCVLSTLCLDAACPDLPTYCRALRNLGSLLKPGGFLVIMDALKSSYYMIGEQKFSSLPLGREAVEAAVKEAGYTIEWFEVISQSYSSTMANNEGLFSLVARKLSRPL

[2] = target: Protein arginine N-methyltransferase 1 (Rattus norvegicus, UniProt Q63009); experiment: Inhibition of recombinant rat His-tagged PRMT1 expressed in Escherichia coli BL21(DE3) cells using H4-21 peptide as susbtrate preincubated for 10 mins in presence of AdoMet followed by substrate addition by fluorescence based SAHH enzyme coupled assay
[3] = target: T2, Phenylethanolamine N-methyltransferase (Homo sapiens, UniProt P11086); experiment: Inhibition of human N-terminal His6 tagged PNMT using norepinephrine as substrate preincubated for 10 mins in presence of AdoMet followed by substrate addition by fluorescence based SAHH enzyme coupled assay
T2 sequence (P11086 whole entry): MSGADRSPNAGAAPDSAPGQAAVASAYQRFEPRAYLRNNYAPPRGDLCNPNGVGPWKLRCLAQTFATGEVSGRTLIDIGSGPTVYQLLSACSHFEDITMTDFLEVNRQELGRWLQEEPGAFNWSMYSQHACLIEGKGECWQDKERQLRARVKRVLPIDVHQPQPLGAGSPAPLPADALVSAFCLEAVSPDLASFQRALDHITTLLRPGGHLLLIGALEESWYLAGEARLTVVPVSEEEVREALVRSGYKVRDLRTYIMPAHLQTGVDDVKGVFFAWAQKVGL

Adenosylhomocysteinase = Adenosylhomocysteinase (Homo sapiens, UniProt P23526); experiment: Inhibition of SAHH (unknown origin) using SAH as substrate preincubated for 10 mins followed by susbtrate addition by fluorescence based assay
[4] = target: T3, Histone-lysine N-methyltransferase EHMT2 (Homo sapiens, UniProt Q96KQ7); experiment: Inhibition of recombinant human G9a (913 to 1193 residues) expressed in Escherichia coli BL21-CodonPlus(DE3)-RIL using H3-21 peptide preincubated for 10 mins in presence of AdoMet followed by substrate addition by fluorescence based SAHH enzyme coupled assay
T3 sequence (Q96KQ7 whole entry): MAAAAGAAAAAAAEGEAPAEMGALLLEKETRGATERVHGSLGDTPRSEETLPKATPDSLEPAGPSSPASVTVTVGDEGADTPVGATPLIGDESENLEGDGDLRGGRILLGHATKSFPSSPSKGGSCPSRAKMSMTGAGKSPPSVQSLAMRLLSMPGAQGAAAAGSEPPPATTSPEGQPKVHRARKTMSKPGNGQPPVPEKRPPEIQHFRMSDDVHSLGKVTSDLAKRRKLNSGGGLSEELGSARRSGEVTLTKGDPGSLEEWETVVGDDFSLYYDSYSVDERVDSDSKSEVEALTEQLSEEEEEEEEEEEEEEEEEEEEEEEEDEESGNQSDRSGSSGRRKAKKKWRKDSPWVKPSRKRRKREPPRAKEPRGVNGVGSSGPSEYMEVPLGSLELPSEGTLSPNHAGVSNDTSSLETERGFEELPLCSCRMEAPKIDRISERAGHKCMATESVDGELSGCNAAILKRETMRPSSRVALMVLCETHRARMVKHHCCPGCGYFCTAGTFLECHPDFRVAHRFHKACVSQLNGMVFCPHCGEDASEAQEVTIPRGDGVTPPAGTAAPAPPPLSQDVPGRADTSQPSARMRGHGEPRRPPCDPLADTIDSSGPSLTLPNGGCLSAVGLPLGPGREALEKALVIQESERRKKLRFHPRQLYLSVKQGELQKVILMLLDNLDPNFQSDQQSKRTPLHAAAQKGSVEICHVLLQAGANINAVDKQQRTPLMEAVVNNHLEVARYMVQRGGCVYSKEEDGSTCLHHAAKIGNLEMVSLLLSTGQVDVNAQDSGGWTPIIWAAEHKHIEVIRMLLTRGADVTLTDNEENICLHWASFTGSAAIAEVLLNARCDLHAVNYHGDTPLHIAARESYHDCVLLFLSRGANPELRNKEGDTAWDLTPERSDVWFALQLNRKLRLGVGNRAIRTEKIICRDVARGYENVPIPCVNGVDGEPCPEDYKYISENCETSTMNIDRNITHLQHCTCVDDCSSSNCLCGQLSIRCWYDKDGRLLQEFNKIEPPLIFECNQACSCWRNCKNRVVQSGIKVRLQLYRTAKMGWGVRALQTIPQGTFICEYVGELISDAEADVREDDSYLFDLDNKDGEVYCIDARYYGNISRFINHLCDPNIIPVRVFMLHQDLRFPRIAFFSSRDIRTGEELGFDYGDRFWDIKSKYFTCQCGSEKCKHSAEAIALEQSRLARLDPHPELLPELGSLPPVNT

[5] = Inhibition of Trypanosoma brucei PRMT7 expressed in Escherichia coli preincubated for 10 mins in presence of AdoMet followed by susbtrate addition by fluorescence based SAHH enzyme coupled assay
[6] = target: T4, N-terminal Xaa-Pro-Lys N-methyltransferase 1 (Homo sapiens, UniProt Q9BV86); experiment: Inhibition of NTMT1 (unknown origin) using GPKRIA peptide as substrate preincubated for 10 mins in presence of AdoMet followed by susbtrate addition by fluorescence based SAHH enzyme coupled assay
T4 sequence (Q9BV86 whole entry): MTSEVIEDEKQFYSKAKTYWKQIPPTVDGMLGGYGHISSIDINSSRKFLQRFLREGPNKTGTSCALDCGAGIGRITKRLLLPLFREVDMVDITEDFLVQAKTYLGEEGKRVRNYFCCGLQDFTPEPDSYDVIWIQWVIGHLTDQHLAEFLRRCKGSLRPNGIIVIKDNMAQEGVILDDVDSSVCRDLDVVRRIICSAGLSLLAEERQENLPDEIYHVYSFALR

[7] = target: T5, Histone-lysine N-methyltransferase SETD7 (Homo sapiens, UniProt Q8WTS6); experiment: Inhibition of recombinant human His-tagged SETD7 (1 to 366 residues) expressed in Escherichia coli using H3-21 peptide as susbtrate preincubated for 10 mins in presence of AdoMet followed by substrate addition by fluorescence based SAHH enzyme coupled assay
T5 sequence (Q8WTS6 whole entry): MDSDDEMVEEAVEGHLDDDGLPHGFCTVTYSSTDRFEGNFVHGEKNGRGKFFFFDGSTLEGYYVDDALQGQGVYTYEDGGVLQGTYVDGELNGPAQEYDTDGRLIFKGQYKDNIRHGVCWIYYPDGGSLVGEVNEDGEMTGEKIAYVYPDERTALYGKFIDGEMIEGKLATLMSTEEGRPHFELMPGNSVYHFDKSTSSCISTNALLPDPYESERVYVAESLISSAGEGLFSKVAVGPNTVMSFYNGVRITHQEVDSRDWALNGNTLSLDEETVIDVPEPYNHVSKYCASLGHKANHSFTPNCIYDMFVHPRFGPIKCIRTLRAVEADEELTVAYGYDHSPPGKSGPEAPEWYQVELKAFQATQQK

[8] = target: Indolethylamine N-methyltransferase (Homo sapiens, UniProt O95050); experiment: Inhibition of human N- terminal His6 tagged human INMT expressed in Escherichia coli BL21-CodonPlus(DE3)-RIL using tryptamine as substrate preincubated for 10 mins in presence of AdoMet followed by substrate addition by fluorescence based SAHH enzyme coupled assay
Chain of Indolethylamine N-methyltransferase (O95050 whole entry): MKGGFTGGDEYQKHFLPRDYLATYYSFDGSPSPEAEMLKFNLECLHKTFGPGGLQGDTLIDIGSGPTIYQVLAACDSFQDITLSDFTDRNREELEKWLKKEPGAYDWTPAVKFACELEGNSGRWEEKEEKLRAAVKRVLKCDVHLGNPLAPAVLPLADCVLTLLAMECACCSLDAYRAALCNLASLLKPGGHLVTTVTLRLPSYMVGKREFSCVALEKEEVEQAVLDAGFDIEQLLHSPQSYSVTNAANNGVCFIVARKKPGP

Chain of Protein arginine N-methyltransferase 1 (Q63009 whole entry): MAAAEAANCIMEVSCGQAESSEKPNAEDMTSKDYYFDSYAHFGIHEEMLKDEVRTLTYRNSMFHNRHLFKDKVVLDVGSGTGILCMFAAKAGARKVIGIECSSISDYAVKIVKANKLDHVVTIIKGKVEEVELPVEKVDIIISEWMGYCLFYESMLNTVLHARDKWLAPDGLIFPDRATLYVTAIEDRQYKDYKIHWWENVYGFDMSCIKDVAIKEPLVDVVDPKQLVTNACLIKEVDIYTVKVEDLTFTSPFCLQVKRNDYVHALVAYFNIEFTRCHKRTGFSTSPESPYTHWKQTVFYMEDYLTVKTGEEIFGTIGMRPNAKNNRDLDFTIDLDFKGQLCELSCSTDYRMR
Chain of Adenosylhomocysteinase (P23526 whole entry, the tested form may be a part): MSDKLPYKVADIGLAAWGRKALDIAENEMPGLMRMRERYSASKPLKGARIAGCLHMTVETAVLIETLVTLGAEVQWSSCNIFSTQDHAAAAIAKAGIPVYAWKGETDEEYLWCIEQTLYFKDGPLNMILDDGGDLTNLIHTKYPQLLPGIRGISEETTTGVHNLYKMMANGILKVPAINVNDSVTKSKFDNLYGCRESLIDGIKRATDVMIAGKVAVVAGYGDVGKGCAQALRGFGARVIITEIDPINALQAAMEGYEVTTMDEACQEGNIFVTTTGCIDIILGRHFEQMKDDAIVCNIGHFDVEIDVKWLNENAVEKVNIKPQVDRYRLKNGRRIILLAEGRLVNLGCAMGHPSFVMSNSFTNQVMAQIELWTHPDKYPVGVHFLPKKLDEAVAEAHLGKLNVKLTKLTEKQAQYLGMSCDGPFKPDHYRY

With `NC(=O)c1ccccc1` [BENZAMIDE] the Ki [1] was greater than 100 µM.

In the case of `NC(=O)c1cccc(CCN(CC[C@H](N)C(=O)O)C[C@H]2O[C@@H](n3cnc4c(N)ncnc43)[C@H](O)[C@@H]2O)c1`, the Ki [1] is reported as 10 µM.

`Nc1ncnc2c1ncn2[C@@H]1O[C@H](CN(CCc2ccc3ccccc3c2)CC[C@H](N)C(=O)O)[C@@H](O)[C@H]1O` gave a Ki [1] of 27.3 µM.

Molecule `Cc1ccc(CCCN(CC[C@H](N)C(=O)O)C[C@H]2O[C@@H](n3cnc4c(N)ncnc43)[C@H](O)[C@@H]2O)cc1C(N)=O` has a Ki [1] of 0.051 µM.

`COC(=O)c1cccc(CCCN(CC[C@H](N)C(=O)O)C[C@H]2O[C@@H](n3cnc4c(N)ncnc43)[C@H](O)[C@@H]2O)c1` gave a Ki [1] of 28 µM.

For `Nc1ncnc2c1ncn2[C@@H]1O[C@H](CN(CCCc2cccc3ccccc23)CCC[C@H](N)C(=O)O)[C@@H](O)[C@H]1O`, the Ki [1] was 1.1 µM.

For `NC(=O)c1cccc(CCCCN(CC[C@H](N)C(=O)O)C[C@H]2O[C@@H](n3cnc4c(N)ncnc43)[C@H](O)[C@@H]2O)c1`, the Ki [1] was 0.84 µM.

`NC(=O)c1cccc(C#CCNC[C@H]2O[C@@H](n3cnc4c(N)ncnc43)[C@H](O)[C@@H]2O)c1` gave a Ki [1] of 3 µM.

`NC(=O)c1cccc(C#CCN(CC[C@H](N)C(=O)O)C[C@H]2O[C@@H](n3cnc4c(N)ncnc43)[C@H](O)[C@@H]2O)c1` showed an IC50 [2] greater than 100 µM, an IC50 [3] greater than 100 µM and an IC50 (Adenosylhomocysteinase) greater than 3.7 µM. The IC50 [4] was greater than 100 µM, the IC50 [5] was greater than 33 µM and the IC50 [6] was greater than 33 µM. It also gave an IC50 [7] greater than 100 µM and an IC50 [8] greater than 100 µM.

`Nc1ncnc2c1ncn2[C@@H]1O[C@H](CN(CCCc2ccc3ccccc3c2)CC[C@H](N)C(=O)O)[C@@H](O)[C@H]1O` gave a Ki [1] of 4 µM.

For `Cc1ccc(C(N)=O)cc1CCCN(CC[C@H](N)C(=O)O)C[C@H]1O[C@@H](n2cnc3c(N)ncnc32)[C@H](O)[C@@H]1O`, the Ki [1] was 0.15 µM.

Work on `NC(=O)c1cccc(CCCCN(CCC[C@H](N)C(=O)O)C[C@H]2O[C@@H](n3cnc4c(N)ncnc43)[C@H](O)[C@@H]2O)c1` yielded a Ki [1] of 0.54 µM.

`NC(=O)c1cccc(CCCN(CCC[C@H](N)C(=O)O)C[C@H]2O[C@@H](n3cnc4c(N)ncnc43)[C@H](O)[C@@H]2O)c1` showed a Ki [1] of 3 µM.

`NC(=O)c1cccc(CCCN(CC[C@H](N)C(=O)O)C[C@H]2O[C@@H](n3cnc4c(N)ncnc43)[C@H](O)[C@@H]2O)c1` showed a Ki [1] of 0.043 µM.

`Nc1ncnc2c1ncn2[C@@H]1O[C@H](CN(CCCc2ccc3ccccc3c2)CCC[C@H](N)C(=O)O)[C@@H](O)[C@H]1O` gave a Ki [1] of 33.3 µM.

`Cc1ccc(C#CCN(CC[C@H](N)C(=O)O)C[C@H]2O[C@@H](n3cnc4c(N)ncnc43)[C@H](O)[C@@H]2O)cc1C(N)=O` gave a Ki [1] of 0.016 µM.

`COc1ccc(C(N)=O)cc1C#CCN(CC[C@H](N)C(=O)O)C[C@H]1O[C@@H](n2cnc3c(N)ncnc32)[C@H](O)[C@@H]1O` gave a Ki [1] of 0.052 µM.

`Nc1ncnc2c1ncn2[C@@H]1O[C@H](CN(CCCc2cccc3ccccc23)CC[C@H](N)C(=O)O)[C@@H](O)[C@H]1O` gave a Ki [1] of 11.8 µM.

From ChEMBL document CHEMBL4321848 (J Med Chem, 2019)
